Experimental data published in ChEMBL document CHEMBL1201862, “PubChem BioAssay data set” (2004).
Activity calls are given as the source filed them. Cut-off read from the data, not from the text of the source: actives have a measured IC50 and inactives only a lower limit.

Molecular target: Envelope glycoprotein gp160 (Human immunodeficiency virus 1, UniProt Q6QLK5)
Test: inhibitors of HIV fusion peptide binding, primary screen, biochemical, uHTS, fluorescence dequenching (AID 1986)

Chain of Envelope glycoprotein gp160 (Q6QLK5 whole entry, the tested form may be a part): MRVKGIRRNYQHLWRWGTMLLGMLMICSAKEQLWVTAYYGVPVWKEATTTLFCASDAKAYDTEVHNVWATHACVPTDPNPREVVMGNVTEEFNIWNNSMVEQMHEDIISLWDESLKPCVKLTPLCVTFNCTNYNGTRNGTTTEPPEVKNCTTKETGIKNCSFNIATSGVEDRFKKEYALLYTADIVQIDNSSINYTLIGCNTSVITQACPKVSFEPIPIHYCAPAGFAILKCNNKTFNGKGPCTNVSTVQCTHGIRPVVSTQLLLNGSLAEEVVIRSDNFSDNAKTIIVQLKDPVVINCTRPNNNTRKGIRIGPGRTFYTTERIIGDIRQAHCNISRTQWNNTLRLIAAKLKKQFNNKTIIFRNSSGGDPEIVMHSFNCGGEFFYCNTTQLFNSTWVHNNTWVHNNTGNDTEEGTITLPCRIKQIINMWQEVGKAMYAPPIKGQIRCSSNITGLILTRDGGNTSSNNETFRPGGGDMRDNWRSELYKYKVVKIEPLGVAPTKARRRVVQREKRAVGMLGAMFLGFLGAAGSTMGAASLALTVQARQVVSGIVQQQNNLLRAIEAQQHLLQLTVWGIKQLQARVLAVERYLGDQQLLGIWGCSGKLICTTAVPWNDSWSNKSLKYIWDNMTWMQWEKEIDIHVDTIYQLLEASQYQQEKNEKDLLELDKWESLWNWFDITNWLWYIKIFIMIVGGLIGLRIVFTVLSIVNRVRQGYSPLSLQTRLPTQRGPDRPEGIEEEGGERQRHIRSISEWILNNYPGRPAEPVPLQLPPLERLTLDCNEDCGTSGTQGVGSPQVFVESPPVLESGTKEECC

CCCCCC#CCC#CCC#CCC#CCCCC(=O)O
IC50: 11.9 µM (active)

CC(C)S(=O)(=O)C1=NSC2=NC(=O)/C(=C\c3ccc(-c4cccc(C(=O)O)c4)o3)C(=N)N21
IC50: 18.3 µM (active)

COc1cc(NS(=O)(=O)c2ccc(NC(=S)NC(=O)c3sc4ccccc4c3Cl)cc2)nc(OC)n1
IC50: 16.5 µM (active)

O=C(COc1ccc(Cl)cc1Cl)Nc1ccc(C(=O)Nc2ccccc2C(=O)O)cc1
IC50: 9.54 µM (active)
